A value given as a limit tells only on which side of the number the result lay.

From the supplement of paper PMC6411743 come the findings set out here.

Compound in this assay: Nc1ncnc2c1ncn2[C@@H]1O[C@H](COP(=O)(O)OP(=O)(O)OP(=O)(O)O)[C@@H](O)[C@H]1O [adenosine triphosphate]
The assay is described as follows: pEC50 of ATP-induced change in protein thermal stability (2D-TPP). The method, then:
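2D thermal proteome profiling in mechanically disrupted Jurkat crude lysate. Lysate was treated 10 min at room temperature with Na-ATP (0, 0.005, 0.05, 0.5, 2 mM), heated to 12 temperatures (42-63.9 °C) for 3 min, and soluble protein was quantified by TMT10 LC-MS/MS. pEC50 is the median over replicates of dose-response fits at the lowest temperature showing a fold change of at least 1.5 (FDR-controlled hits).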

UniProt P38919, sequence (P38919 whole entry): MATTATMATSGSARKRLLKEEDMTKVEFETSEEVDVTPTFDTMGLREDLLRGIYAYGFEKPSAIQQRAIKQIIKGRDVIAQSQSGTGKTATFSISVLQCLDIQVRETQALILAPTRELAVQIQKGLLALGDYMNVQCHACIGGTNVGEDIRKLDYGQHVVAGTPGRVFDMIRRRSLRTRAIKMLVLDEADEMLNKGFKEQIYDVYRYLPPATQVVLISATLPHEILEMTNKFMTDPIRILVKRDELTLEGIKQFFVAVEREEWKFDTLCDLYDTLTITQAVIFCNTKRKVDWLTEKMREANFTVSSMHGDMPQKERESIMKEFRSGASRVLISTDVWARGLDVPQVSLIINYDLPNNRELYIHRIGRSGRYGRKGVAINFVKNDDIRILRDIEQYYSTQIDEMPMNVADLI
UniProt P55010, sequence (P55010 whole entry): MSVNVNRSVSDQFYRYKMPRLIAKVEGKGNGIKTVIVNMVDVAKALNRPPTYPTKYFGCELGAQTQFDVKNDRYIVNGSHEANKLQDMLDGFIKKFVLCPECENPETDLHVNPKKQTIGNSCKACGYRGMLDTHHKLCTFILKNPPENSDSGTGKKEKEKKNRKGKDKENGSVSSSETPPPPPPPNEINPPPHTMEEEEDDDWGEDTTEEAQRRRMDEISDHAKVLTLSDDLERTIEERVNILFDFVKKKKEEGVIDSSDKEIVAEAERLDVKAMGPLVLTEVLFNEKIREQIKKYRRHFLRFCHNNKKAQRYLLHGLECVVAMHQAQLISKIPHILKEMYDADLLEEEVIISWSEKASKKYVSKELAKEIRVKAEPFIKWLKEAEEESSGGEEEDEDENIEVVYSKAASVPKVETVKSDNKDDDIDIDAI
UniProt Q92905, sequence (Q92905 whole entry, looked up): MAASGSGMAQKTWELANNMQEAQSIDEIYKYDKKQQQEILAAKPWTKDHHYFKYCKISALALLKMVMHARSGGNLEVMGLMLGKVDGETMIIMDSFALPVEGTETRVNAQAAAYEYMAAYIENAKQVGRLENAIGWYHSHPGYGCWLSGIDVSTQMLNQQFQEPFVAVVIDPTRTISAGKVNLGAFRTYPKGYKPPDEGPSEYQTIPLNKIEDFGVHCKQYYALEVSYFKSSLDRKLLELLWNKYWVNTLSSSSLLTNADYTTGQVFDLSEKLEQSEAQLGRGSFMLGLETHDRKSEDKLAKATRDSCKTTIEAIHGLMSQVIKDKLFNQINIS
UniProt Q15717, sequence (Q15717 whole entry): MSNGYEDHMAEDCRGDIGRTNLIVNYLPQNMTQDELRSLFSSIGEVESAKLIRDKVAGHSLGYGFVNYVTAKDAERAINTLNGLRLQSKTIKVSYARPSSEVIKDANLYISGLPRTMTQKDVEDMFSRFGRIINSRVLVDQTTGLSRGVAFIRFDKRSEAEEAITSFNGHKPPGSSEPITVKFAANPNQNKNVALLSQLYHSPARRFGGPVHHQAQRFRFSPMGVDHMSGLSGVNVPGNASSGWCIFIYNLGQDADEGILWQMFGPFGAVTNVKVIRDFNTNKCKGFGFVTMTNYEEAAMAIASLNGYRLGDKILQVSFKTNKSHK
UniProt Q8IWX8, sequence (Q8IWX8 whole entry): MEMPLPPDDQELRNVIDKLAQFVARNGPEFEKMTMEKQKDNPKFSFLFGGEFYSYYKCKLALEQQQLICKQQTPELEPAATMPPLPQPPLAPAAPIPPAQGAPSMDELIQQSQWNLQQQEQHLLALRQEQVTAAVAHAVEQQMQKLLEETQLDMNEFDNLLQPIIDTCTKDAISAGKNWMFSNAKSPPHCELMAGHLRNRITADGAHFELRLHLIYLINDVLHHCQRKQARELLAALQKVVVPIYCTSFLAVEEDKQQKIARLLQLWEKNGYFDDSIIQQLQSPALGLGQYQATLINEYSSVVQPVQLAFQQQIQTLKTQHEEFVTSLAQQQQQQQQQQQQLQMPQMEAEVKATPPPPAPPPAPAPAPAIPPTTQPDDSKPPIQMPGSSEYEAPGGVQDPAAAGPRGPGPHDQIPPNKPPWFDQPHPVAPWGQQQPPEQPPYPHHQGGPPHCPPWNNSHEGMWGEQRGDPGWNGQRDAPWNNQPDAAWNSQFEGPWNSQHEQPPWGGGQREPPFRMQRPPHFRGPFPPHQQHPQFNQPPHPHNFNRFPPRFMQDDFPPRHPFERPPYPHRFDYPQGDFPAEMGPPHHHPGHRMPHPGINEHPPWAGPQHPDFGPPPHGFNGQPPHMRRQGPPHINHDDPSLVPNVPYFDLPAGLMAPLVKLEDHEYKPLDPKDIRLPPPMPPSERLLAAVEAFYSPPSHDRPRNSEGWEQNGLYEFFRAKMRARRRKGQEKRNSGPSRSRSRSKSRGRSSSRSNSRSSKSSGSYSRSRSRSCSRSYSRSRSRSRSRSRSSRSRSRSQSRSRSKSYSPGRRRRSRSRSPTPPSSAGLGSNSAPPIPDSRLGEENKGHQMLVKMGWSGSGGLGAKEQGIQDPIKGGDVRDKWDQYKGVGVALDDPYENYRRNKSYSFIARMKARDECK
UniProt Q8N0X4, sequence (Q8N0X4 whole entry): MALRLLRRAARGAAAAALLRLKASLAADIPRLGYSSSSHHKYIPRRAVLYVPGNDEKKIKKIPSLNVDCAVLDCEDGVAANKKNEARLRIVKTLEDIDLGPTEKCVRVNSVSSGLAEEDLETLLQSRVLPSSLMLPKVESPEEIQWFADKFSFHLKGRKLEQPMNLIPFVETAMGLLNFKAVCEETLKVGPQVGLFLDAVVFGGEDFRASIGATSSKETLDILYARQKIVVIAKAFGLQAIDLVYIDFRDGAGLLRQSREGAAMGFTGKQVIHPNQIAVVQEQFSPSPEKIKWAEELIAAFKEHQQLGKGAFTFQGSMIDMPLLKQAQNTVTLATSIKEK
UniProt Q9UHD1, sequence (Q9UHD1 whole entry): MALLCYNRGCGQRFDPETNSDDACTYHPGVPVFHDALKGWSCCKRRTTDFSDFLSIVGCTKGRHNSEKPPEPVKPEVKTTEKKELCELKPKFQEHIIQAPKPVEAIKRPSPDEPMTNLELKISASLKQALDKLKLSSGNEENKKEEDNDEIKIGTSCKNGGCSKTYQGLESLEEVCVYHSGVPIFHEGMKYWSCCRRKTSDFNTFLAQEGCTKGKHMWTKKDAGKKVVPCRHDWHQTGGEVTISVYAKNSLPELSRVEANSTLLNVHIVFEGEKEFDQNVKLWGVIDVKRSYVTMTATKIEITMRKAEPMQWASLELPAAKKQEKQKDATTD
UniProt Q9Y262, sequence (Q9Y262 whole entry): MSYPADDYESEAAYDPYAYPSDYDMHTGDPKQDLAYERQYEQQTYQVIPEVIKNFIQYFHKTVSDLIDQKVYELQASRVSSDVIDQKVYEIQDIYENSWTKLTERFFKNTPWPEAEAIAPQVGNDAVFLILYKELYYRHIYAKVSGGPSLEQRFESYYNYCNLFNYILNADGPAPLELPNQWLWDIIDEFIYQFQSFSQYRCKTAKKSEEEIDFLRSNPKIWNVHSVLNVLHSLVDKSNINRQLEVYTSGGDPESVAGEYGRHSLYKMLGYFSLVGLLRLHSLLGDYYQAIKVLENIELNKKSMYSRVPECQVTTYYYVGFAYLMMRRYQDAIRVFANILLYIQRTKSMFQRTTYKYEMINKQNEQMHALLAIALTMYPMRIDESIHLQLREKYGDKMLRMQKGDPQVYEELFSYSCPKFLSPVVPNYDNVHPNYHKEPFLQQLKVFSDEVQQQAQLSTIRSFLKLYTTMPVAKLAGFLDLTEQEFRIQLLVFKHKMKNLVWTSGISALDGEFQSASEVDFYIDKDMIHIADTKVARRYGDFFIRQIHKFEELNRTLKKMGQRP
UniProt Q8IUI8, sequence (Q8IUI8 whole entry): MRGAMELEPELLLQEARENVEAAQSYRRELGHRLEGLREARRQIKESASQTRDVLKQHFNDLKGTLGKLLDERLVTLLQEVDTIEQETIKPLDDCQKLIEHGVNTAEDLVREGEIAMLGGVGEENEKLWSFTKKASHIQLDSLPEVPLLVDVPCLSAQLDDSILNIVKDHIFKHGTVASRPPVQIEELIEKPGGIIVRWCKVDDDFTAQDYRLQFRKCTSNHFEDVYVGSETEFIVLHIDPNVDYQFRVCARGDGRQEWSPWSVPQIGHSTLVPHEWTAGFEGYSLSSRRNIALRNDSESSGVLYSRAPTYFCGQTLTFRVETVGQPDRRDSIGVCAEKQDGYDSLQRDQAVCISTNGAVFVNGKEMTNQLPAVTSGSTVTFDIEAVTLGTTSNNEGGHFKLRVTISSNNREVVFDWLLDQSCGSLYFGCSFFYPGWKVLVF
UniProt Q9UHQ9, sequence (Q9UHQ9 whole entry): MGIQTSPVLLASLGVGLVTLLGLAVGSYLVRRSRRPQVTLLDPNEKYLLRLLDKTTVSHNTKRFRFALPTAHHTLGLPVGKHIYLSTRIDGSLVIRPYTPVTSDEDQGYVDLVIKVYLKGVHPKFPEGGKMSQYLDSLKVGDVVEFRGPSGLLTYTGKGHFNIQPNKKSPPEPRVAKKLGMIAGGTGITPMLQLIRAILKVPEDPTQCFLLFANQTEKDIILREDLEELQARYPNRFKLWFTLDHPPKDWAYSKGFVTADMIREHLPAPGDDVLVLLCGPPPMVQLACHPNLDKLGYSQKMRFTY
UniProt O75503, sequence (O75503 whole entry): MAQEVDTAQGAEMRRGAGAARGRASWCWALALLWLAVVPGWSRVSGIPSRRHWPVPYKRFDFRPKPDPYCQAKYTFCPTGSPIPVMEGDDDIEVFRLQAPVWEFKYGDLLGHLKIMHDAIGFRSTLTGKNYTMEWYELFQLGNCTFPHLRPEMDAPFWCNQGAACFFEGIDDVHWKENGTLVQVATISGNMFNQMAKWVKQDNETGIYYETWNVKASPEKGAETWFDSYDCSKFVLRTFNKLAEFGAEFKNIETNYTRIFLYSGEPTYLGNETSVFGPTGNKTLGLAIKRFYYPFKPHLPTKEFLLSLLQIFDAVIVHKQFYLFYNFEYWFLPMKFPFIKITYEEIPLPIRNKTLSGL
UniProt O60869, sequence (O60869 whole entry): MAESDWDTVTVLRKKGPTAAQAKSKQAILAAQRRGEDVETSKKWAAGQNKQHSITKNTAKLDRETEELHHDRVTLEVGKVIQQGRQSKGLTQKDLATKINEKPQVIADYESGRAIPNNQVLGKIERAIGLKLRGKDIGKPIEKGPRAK

The pEC50 is the negative decadic logarithm of the EC50, by convention in mol/L. As to “CDK2 (effect direction: stabilized) (UniProt P24941)”, the pEC50 was found to be 3.13.
To “CDK5 (effect direction: stabilized) (UniProt Q00535)” belongs 3.46.
The value for “CDK9 (effect direction: stabilized) (UniProt P50750)” was > 5.3; that for “CDKAL1 (effect direction: destabilized) (UniProt Q5VV42)” was 2.9; that for “CEBPZ (effect direction: destabilized) (UniProt Q03701)” was 3.06.
As for “CENPE (effect direction: stabilized) (UniProt Q02224)”, the negative-log EC50 (pEC50) stood at 4.04.
The value for “CHD1 (effect direction: stabilized) (UniProt O14646)” was < 2.7.
The value for “CHD1L (effect direction: stabilized) (UniProt Q86WJ1)” was 3.74; that for “CHERP (effect direction: stabilized) (UniProt Q8IWX8)” was 3.05.
Take “CHKA (effect direction: stabilized) (UniProt P35790)”: the pEC50 was 3.49.
The value for “CHORDC1 (effect direction: stabilized) (UniProt Q9UHD1)” was < 2.7; that for “CINP (effect direction: stabilized) (UniProt Q9BW66)” was 2.98.
The value for “CLCN3 (effect direction: stabilized) (UniProt P51790)” was 3.23.
The value for “CLCN7 (effect direction: stabilized) (UniProt P51798)” was 3.4; that for “CLIC1 (effect direction: stabilized) (UniProt O00299)” was < 2.7.
For “CLN5 (effect direction: stabilized) (UniProt O75503)”, the negative logarithm of the EC50 (pEC50) came out at 3.38.
The value for “CLYBL (effect direction: destabilized) (UniProt Q8N0X4)” was 2.92; that for “CMPK1 (effect direction: stabilized) (UniProt P30085)” was 3.27; that for “CNOT1 (effect direction: stabilized) (UniProt A5YKK6)” was 3.41.
For “CNOT2 (effect direction: stabilized) (UniProt Q9NZN8)”, the pEC50 stood at 2.77.
The value for “CNOT10 (effect direction: stabilized) (UniProt Q9H9A5)” was 3.17.
The value for “COPB2 (effect direction: stabilized) (UniProt P35606)” was < 2.7.
The value for “COPS5 (effect direction: stabilized) (UniProt Q92905)” was < 2.7; that for “COPS6 (effect direction: stabilized) (UniProt Q7L5N1)” was < 2.7.
Consider “CPSF1 (effect direction: stabilized) (UniProt Q10570)”, for which the pEC50 is < 2.7.
The value for “CPSF2 (effect direction: stabilized) (UniProt Q9P2I0)” was < 2.7; that for “CRLF3 (effect direction: stabilized) (UniProt Q8IUI8)” was < 2.7; that for “CS (effect direction: stabilized) (UniProt O75390)” was < 2.7.
As to “CSE1L (effect direction: stabilized) (UniProt P55060)”, the pEC50 is 3.69.
Take “CTBP1 (effect direction: stabilized) (UniProt Q13363)”: the negative-log EC50 (pEC50) was 2.87.
The value for “CTBS (effect direction: stabilized) (UniProt Q01459)” was 2.87; that for “CTNNBL1 (effect direction: stabilized) (UniProt Q8WYA6)” was 3.08.
The value for “CTSA (effect direction: stabilized) (UniProt P10619)” was 3.12; that for “CTSB (effect direction: stabilized) (UniProt P07858)” was 3.34; that for “CTSD (effect direction: stabilized) (UniProt P07339)” was 3.11.
To “CYB5R1 (effect direction: stabilized) (UniProt Q9UHQ9)” belongs < 2.7; to “CYB5R3 (effect direction: stabilized) (UniProt P00387)”, 4.02; to “DARS2 (effect direction: stabilized) (UniProt Q6PI48)”, 4.12.
In the case of “DCPS (effect direction: stabilized) (UniProt Q96C86)”, the negative logarithm of the EC50 (pEC50) is < 2.7.
With “DCTN1 (effect direction: stabilized) (UniProt Q14203)”, the negative-log EC50 (pEC50) is < 2.7.
For “DDB2 (effect direction: stabilized) (UniProt Q92466)”, the pEC50 was 3.2.
The value for “DDHD2 (effect direction: stabilized) (UniProt O94830)” was < 2.7.
The value for “DDX11L8 (effect direction: stabilized) (UniProt A8MPP1)” was 3.15.
On to “DDX19A (effect direction: stabilized) (UniProt Q9NUU7)”, for which the pEC50 stood at 3.75.
The value for “DDX20 (effect direction: stabilized) (UniProt Q9UHI6)” was 3.48; that for “DDX49 (effect direction: stabilized) (UniProt Q9Y6V7)” was 3.93; that for “DDX56 (effect direction: stabilized) (UniProt Q9NY93)” was 3.68.
To “DECR1 (effect direction: stabilized) (UniProt Q16698)” belongs < 2.7; to “DERA (effect direction: stabilized) (UniProt Q9Y315)”, 3.16; to “DHCR24 (effect direction: stabilized) (UniProt Q15392)”, 3.66.
To “DHX16 (effect direction: stabilized) (UniProt O60231)” belongs 4.14; to “DHX36 (effect direction: stabilized) (UniProt Q9H2U1)”, 3.99; to “DHX40 (effect direction: stabilized) (UniProt Q8IX18)”, 3.44.
With “DHX57 (effect direction: stabilized) (UniProt Q6P158)”, the pEC50 is 4.17.
For “DIS3L2 (effect direction: stabilized) (UniProt Q8IYB7)”, the negative-log EC50 (pEC50) came to 3.42.
The value for “DLGAP5 (effect direction: destabilized) (UniProt Q15398)” was 2.82.
The value for “DNAJA2 (effect direction: stabilized) (UniProt O60884)” was < 2.7; that for “DNAJC13 (effect direction: stabilized) (UniProt O75165)” was 2.86.
The value for “DNMT1 (effect direction: destabilized) (UniProt P26358)” was 2.98; that for “DRAP1 (effect direction: destabilized) (UniProt Q14919)” was < 2.7; that for “DUS3L (effect direction: stabilized) (UniProt Q96G46)” was 2.91.
With “DUSP12 (effect direction: stabilized) (UniProt Q9UNI6)”, the pEC50 was < 2.7.
The value for “DYNC1H1 (effect direction: stabilized) (UniProt Q14204)” was 3.39; that for “DYRK1A (effect direction: stabilized) (UniProt Q13627)” was 3.49.
To “EDF1 (effect direction: stabilized) (UniProt O60869)” belongs < 2.7.
To “EEF1D (effect direction: stabilized) (UniProt P29692)” belongs < 2.7; to “EEF1G (effect direction: stabilized) (UniProt P26641)”, < 2.7; to “EFHD1 (effect direction: destabilized) (UniProt Q9BUP0)”, 3.18.
On to “EFHD2 (effect direction: destabilized) (UniProt Q96C19)”, for which the pEC50 is 3.08.
In the case of “EHD4 (effect direction: stabilized) (UniProt Q9H223)”, the pEC50 was determined as 3.86.
To “EIF2B2 (effect direction: stabilized) (UniProt P49770)” belongs 2.83; to “EIF2B3 (effect direction: stabilized) (UniProt Q9NR50)”, 3.82.
The value for “EIF3A (effect direction: destabilized) (UniProt Q14152)” was 4.48; that for “EIF3K (effect direction: stabilized) (UniProt Q9UBQ5)” was < 2.7.
To “EIF3L (effect direction: stabilized) (UniProt Q9Y262)” belongs < 2.7; to “EIF4A3 (effect direction: stabilized) (UniProt P38919)”, 3.68; to “EIF4G1 (effect direction: stabilized) (UniProt Q04637)”, 2.71.
As for “EIF4G2 (effect direction: stabilized) (UniProt P78344)”, the negative logarithm of the EC50 (pEC50) was < 2.7.
The value for “EIF5 (effect direction: stabilized) (UniProt P55010)” was < 2.7.
On to “ELAVL1 (effect direction: stabilized) (UniProt Q15717)”, for which the pEC50 turned out to be 3.02.
With “EMG1 (effect direction: stabilized) (UniProt Q92979)”, the pEC50 stood at 5.25.
